Data set [1] deals with Rac. As to the kind of experiment: Rac activation pull down assay (PAK beads, Western blot). It counts as cell-based. The conditions noted are these: Western Blot (FIG. 2a). As for the experimental part:
(§1) To determine which of these compounds should be further pursued, a biochemical pull down assay was performed to confirm specific inhibition of Rac activation indicated by disruption of the interaction between Rac and […]. The assay initially required treatment of cells followed by pull down and analysis with Western blot. The cells were first starved in serum free media for 2 hours. They were then re-suspended in serum-containing medium and inhibitors added at desired concentration. Following incubation for the desired length of time, the cells were pelleted and lysed with Magnesium Lysis Buffer (Millipore Mg^2+ lysis/wash buffer). The Rac protein and any bound proteins were then collected with Pak Beads (Millipore Rac/cdc42 Assay Reagent (PAK-1 PBD, agarose). Bound protein was subsequently removed with lysis buffer and subject to Western Blot analysis.
Compound 1 was identified as a lead compound from the above analyses. […] The Western Blot and pull down analyses are also shown for the compound DMSO, and the compound NSC23776, which is a known inhibitor of Rac1 binding and of Rac activation by Rac-specific RhoGEFs.

The subject of data set [2] is P12-Ichikawa cells. Nature of the data set: Proliferation assay in P12 leukemia cells. It is filed as cell-based. The conditions noted are these: Homo sapiens, read-out: IC50, inhibition of proliferation. Here is the method: (§2) Dose Dependent Inhibition of Proliferation The 100 compounds selected from the initial in silico screen were assayed for inhibition of proliferation in two leukemia cell lines, SEM and P12 by Cell Titer Glo. The cells for the proliferation assay were spun down and re-suspended. The cell suspension was then divided and the compound to be tested added in desired concentrations and subsequently plated. Following an incubation period, the Cell Titer Glo reagent (Promega CellTiter 96® Aqueous Non-Radioactive Cell Proliferation Assay) was added and allowed to incubate. The absorbance is subsequently measured at 490 nm using a plate reader. Each compound was analyzed for its effects on cell proliferation.
(§3) The lead compound, i.e. Compound 1, was analyzed for its effect on cell proliferation at various doses on three different leukemia cell lines: SEM, P12, and Loucy. In order to quantitate the percentage inhibition of cell proliferation, Cell Titer Glo analysis was completed as described in Example 2 above.
(§4) FIGS. 3a-3c show three graphs illustrating the dose dependent inhibition of proliferation of Compound 1 in SEM, P12, and Loucy cells as measured by MTS assay. […] Compound 1 was further analyzed for its effect on cell apoptosis and cell death using a flow based assay using Annexin V staining.

In data set [3] the test system is Loucy cells. Nature of the data set: Proliferation assay in Loucy leukemia cells. It is filed as cell-based. The conditions noted are these: read-out: IC50, inhibition of proliferation. As for the experimental part: as §2, §3, §4
Data set [4] relates to SEM cell line. Nature of the data set: Annexin V flow assay for apoptosis and cell death, SEM. It counts as cell-based. The note with it: Annexin V staining.
Excerpt: as §4
Compound 2 was further analyzed for its effect on cell apoptosis and cell death using a flow based assay using Annexin V staining.

Data set [5] concerns normal bone marrow hematopoietic and progenitor cells. As to the kind of experiment: Colony forming unit assay (CFU assay) for toxicity. The conditions noted are these: semi-solid media, different doses. It counts as cell-based. Here is the method: Compound 1 was tested for toxicity in a colony forming unit assay (CFU assay), which was performed by plating normal bone marrow hematopoietic and progenitor cells in semi-solid media supplemented with different doses of Compound 1, NSC23766, and DMSO.
Compound 2 was also tested for toxicity in a colony forming unit assay (CFU assay), which was performed by plating normal bone marrow hematopoietic and progenitor cells in semi-solid media supplemented with different doses of Compound 2, NSC23766, and DMSO.

Data set [6] concerns SEM leukemic cell line. As to the kind of experiment: In vivo SEM leukemia model in NSG mice. The note with it: 250 mg/Kg twice a day for 21 days. As for the experimental part:
Compound 1 was assayed for its pharmacokinetics and anti-leukemia activities in mice. Specifically, a SEM leukemic cell line was labeled with a vector encoding the mCherry tag and Luciferase. 500,000 labeled cells were injected into immunodeficient mice (NSG mice). After establishment of leukemia (as assessed by bioluminescent imaging), mice were treated with Compound 1 at a dose 250 mg/Kg or a vehicle for 21 days twice a day. During treatment, mice were imaged every other day and BLI recorded and analyzed. 2 hours after the last dose, animals were sacrificed and organs harvested for PK and PD analysis.
FIGS. 8b and 8c show the bioluminescence data obtained from the mice treated with Compound 1 and a vehicle when the mice were imaged in a supine position and a prone position, respectively.

In data set [7] the target is T1, CDC42 (Homo sapiens, UniProt P60953).
T1 construct: endogenous in cells
As to the kind of experiment: CDC42 activation pull down assay (Western blot). The note with it: Western Blot (FIG. 10a). It is filed as cell-based. As for the experimental part: as §1
Compound 1 was tested to evaluate its effect on CDC42 activation. In this case, beads for the immunoprecipitation were coated with a CDC42 effector domain. […] The Western Blot and pull down analyses are also shown for DMSO and […].

In data set [8] the target is T2, RHOA (Homo sapiens, UniProt P61586).
T2 construct: endogenous in cells
Nature of the data set: RHOA activation pull down assay (Western blot). It is filed as cell-based. The note with it: Western Blot (FIG. 11a). An excerpt:
(§5) Compound 1 was further tested to evaluate its effect on RHOA and RAS activation.

Data set [9] concerns RAS. As to the kind of experiment: RAS activation pull down assay (Western blot). It counts as cell-based. The note with it: Western Blot (FIG. 11b).
Excerpt: as §5
(In general: Immunoblotting shows a protein as a band on a membrane.)

In data set [10] the target is Rac1 (Homo sapiens, UniProt P63000). As to the kind of experiment: 2D NMR spectroscopy binding assay. The conditions noted are these: 50 μM Rac1 and 250 μM or 400 μM Compound 1. As for the experimental part: (§6) Compound 1 was tested for its efficacy in binding with Rac1 in two independent binding assays, i.e., 2D NMR spectroscopy and Homologous time resolved fluorescence assay (HTRF).
(§7) In the 2D NMR assay, samples containing 50 μM Rac1 and 250 μM or 400 μM Compound 1 were used.
(§8) Compound 2 was tested for its efficacy in binding with Rac1 in two independent binding assays, i.e., 2D NMR spectroscopy and Homologous time resolved fluorescence assay (HTRF).
(§9) In the 2D NMR assay, a sample containing 50 μM Rac1 and 250 μM Compound 2 was used.

For data set [11], the target named is Tiam1-Rac complex (Homo sapiens, UniProt P63000). Nature of the data set: Homologous time resolved fluorescence (HTRF) binding assay. Here is the method:
as §6, §7, §8, §9
On the technique in general: In TR-FRET formats the signal depends on donor and acceptor labels being close together.

The target of data set [12] is AKT2 (PKB beta) (Homo sapiens, UniProt P31751). As to the kind of experiment: Kinase screening. It is filed as biochemical. As for the experimental part:
(§10) Compound 1 was tested for its efficacy in inhibiting activities of 40 kinases and binding with 12 GPCRs both as an antagonist and an agonist.

In data set [13] the target is JAK1 (Homo sapiens, UniProt P23458). Nature of the data set: Kinase screening. It is filed as biochemical. Here is the method: as §10
Data set [14] addresses JAK3 (Homo sapiens, UniProt P52333). Nature of the data set: Kinase screening. It is filed as biochemical. Here is the method:
as §10

Data set [15] has as its target MAP3K2 (MEKK2) (Homo sapiens, UniProt Q9Y2U5). Nature of the data set: Kinase screening. It is filed as biochemical. As for the experimental part:
as §10

In data set [16] the target is PDGFRA (PDGFR alpha) (Homo sapiens, UniProt P16234). Nature of the data set: Kinase screening. It counts as biochemical. Here is the method:
as §10

Data set [17] deals with 12 GPCRs. As to the kind of experiment: GPCR profiling, whole panel. The note with it: summary of Table 2, antagonist and agonist. It counts as binding. As for the experimental part: as §10

pIC50: −log10 of the molar value.

T1 sequence (P60953 whole entry): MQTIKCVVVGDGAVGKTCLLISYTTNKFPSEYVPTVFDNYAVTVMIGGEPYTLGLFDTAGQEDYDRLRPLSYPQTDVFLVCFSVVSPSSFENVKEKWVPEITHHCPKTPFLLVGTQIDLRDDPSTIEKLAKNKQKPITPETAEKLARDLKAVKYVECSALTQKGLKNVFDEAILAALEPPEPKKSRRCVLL
MAP3K2 (MEKK2), sequence (Q9Y2U5 whole entry, species assumed): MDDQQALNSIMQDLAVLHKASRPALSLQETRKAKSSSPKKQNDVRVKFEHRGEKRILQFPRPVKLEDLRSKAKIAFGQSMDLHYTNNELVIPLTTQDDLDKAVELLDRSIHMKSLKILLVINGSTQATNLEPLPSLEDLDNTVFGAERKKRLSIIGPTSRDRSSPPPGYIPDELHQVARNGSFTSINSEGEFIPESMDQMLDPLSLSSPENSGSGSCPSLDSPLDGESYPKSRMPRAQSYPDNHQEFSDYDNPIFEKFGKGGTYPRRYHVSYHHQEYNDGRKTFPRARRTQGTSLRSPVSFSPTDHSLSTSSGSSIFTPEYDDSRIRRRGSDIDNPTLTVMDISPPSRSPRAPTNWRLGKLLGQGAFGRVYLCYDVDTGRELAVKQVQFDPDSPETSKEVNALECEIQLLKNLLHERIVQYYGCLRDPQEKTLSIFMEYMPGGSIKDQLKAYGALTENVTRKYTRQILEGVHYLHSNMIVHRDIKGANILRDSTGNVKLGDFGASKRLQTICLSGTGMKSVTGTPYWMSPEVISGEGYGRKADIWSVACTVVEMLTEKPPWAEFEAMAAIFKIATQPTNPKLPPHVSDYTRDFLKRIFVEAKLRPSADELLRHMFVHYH
PDGFRA (PDGFR alpha), sequence (P16234 24-1089, species assumed): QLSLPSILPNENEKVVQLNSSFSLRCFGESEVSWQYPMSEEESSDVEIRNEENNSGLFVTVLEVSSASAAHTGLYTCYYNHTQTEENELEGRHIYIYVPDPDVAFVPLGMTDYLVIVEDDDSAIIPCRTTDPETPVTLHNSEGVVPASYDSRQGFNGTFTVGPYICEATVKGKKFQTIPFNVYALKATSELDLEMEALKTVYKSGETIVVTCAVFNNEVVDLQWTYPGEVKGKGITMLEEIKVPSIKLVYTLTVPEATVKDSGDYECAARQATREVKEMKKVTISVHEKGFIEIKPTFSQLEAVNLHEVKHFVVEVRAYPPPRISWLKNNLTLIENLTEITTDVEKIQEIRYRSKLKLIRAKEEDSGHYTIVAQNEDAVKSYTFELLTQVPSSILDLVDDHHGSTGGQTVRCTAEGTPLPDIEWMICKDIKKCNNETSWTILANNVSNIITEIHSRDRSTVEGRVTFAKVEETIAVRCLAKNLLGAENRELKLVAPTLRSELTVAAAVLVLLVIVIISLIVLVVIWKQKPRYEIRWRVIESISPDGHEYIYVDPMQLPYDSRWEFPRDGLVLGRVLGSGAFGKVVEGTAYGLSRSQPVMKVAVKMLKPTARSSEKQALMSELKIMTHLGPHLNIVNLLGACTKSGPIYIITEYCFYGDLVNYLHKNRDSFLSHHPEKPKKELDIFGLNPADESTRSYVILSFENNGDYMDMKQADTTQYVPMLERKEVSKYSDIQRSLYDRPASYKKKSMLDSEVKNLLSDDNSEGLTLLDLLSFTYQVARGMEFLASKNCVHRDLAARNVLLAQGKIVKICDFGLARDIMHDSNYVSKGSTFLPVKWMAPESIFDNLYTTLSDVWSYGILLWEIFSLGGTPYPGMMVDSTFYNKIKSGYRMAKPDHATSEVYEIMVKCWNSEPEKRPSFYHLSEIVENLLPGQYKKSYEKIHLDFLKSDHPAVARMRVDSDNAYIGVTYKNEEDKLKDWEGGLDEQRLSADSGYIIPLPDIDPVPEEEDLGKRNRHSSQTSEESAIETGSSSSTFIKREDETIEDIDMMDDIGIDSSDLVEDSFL
JAK1, sequence (P23458 whole entry, species assumed): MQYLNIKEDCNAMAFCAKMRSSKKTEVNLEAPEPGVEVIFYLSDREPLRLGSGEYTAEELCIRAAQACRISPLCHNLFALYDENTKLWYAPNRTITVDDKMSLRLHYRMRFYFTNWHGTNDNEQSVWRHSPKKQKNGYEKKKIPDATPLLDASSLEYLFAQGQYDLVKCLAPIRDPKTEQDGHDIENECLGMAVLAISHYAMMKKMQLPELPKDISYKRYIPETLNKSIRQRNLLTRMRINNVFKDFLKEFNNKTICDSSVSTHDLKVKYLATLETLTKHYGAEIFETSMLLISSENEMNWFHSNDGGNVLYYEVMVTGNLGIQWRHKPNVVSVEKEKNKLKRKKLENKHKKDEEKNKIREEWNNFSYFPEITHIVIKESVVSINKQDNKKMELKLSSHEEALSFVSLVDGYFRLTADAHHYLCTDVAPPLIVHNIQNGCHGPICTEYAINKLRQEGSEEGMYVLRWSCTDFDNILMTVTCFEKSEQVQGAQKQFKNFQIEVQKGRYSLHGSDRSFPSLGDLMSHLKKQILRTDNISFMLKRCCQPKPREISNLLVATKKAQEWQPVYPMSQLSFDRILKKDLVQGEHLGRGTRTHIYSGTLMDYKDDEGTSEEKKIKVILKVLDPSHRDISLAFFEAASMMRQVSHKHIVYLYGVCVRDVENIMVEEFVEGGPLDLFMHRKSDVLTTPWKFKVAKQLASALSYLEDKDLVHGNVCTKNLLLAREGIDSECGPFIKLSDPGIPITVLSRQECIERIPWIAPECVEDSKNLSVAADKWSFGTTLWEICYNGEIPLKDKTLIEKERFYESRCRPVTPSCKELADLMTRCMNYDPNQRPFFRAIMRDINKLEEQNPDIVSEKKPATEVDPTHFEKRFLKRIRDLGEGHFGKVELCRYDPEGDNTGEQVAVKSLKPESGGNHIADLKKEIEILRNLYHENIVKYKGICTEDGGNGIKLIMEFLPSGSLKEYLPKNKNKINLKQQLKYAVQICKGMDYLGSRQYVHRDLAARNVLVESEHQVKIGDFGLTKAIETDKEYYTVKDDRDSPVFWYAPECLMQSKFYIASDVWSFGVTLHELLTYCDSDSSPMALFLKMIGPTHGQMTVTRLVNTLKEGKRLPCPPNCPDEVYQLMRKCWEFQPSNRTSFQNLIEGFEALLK
JAK3, sequence (P52333 whole entry, species assumed): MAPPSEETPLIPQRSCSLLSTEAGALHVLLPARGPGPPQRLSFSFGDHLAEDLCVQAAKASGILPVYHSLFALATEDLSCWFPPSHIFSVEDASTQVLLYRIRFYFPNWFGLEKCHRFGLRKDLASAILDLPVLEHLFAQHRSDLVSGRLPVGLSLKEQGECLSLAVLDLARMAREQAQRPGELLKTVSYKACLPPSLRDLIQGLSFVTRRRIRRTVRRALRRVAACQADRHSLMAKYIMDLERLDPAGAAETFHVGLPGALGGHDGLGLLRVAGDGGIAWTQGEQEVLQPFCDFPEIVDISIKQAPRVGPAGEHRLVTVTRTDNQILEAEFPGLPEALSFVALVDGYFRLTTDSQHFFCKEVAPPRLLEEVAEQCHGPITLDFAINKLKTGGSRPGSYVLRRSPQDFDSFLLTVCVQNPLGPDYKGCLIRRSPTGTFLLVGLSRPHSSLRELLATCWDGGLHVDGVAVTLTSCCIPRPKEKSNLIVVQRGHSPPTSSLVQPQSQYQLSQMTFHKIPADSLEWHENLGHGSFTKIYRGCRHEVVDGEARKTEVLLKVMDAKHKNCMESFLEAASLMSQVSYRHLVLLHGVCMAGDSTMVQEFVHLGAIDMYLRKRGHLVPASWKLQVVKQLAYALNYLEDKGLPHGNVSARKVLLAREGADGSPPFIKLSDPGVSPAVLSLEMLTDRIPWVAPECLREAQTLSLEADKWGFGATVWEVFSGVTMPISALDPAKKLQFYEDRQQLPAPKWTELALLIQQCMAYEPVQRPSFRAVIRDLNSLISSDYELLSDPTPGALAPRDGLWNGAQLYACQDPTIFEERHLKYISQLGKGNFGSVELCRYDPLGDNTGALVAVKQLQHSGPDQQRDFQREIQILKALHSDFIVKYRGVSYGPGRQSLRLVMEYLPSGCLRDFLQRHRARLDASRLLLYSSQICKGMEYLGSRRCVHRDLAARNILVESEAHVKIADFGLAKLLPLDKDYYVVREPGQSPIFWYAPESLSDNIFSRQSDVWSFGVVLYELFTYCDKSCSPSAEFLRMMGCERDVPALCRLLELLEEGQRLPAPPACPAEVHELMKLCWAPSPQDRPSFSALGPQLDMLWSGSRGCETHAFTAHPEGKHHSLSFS
AKT2 (PKB beta), sequence (P31751 whole entry, species assumed): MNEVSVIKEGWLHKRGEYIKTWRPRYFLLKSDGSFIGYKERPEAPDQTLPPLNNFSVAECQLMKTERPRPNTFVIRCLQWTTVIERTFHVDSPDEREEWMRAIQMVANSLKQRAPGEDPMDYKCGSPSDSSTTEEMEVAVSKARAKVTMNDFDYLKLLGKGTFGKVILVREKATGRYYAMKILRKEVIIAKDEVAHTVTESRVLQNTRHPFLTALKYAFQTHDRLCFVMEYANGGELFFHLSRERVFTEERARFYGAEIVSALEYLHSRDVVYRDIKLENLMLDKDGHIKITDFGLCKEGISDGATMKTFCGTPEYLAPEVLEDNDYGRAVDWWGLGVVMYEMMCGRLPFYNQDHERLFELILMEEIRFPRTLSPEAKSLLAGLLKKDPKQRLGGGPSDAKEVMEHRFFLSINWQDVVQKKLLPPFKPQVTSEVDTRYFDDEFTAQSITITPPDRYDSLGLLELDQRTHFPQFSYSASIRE
T2 sequence (P61586 whole entry): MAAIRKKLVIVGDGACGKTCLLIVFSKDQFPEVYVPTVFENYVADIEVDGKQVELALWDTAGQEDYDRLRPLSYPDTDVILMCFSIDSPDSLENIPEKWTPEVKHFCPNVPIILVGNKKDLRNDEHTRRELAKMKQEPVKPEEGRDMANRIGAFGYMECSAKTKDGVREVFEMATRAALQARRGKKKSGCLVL

`CCc1ccc(CN(C)C(=O)CCc2nnc(CCc3c[nH]c4ccccc34)o2)nc1` (racemic) [Compound 1]: the “total Rac levels” value in data set [1] was “no significant effect”. Further, in data set [1] (pull down), the Rac activation entry is recorded as “dose dependent reduction”. For the same molecule, the pIC50 in data set [2] was 4.41; in data set [3], 3.80. Further, the “cell apoptosis and cell death” value in data set [4] was “caused cells apoptosis and cell death”. Moreover, the “toxicity toward normal bone marrow cells” value in data set [5] was “did not exhibit toxicity”. The “relative weight of the mice” value in data set [6] (vs vehicle group) is “nearly identical”. In data set [6] (imaged in supine or prone position, vs vehicle), the “bioluminescence in the mice” value was “significantly reduced”. In addition, in [7], the “total CDC42 levels” value is on record as “no significant effect”. In [7] (pull down), the CDC42 activation result is “dose dependent reduction”. The RHOA activation result in data set [8] was “no significant effect”. Moreover, the RAS activation result in data set [9] is on record as “no significant effect”. The “binding to Rac1 by 2D NMR” value in data set [10] is “did not indicate any binding”. For the same molecule, the “binding in the HTRF assay” value in [11] was “no binding was observed”. The inhibition percentage in data set [12] is on record as 11.5 percentage; in data set [13], −3.3 percentage; in data set [14], −16.3 percentage; in [15], 5.9 percentage; in data set [16], 15.1 percentage. Also, the “binding to the 12 GPCRs tested” value in data set [17] is given as “no significant binding”.

The record behind these values is patent US11427574B2, “Compounds for treating Rac-GTPase mediated disorder” (Children's Medical Center Corporation, priority 2015, dated 2022).
